The record followed here is US20200030304A1 (priority 2017, published 2020).

The test system of this data set is DFP-induced status epilepticus. The following applies: rat, in vivo.

Consider `Cc1ncc2n1-c1ccc(Cl)cc1C(c1ccccc1F)=NC2` [Midazolam, midazolam], for which the “effect on behavioral seizure scores induced by DFP” value is “in-effective in reducing the behavioral seizure scores” and the mortality result was “no mortality”. In the case of `CCCC(CCC)C(=O)[O-].[Na+]` [sodium valproate], the “termination of status epilepticus / EEG epileptiform activity” value was “intermittent spikes and seizure activity during the whole 5 h of EEG recording”.
